Reference: ChEMBL document CHEMBL1132842, “Novel antifungals based on 4-substituted imidazole: solid-phase synthesis of substituted aryl sulfonamides towards optimization of in vitro activity” (Bioorg Med Chem Lett, 2000)
Converted amounts (≈) assume the structure as drawn. Values belong to the molecule of their own block, whether it stands above or below them.

Columns and labels:
[1] = test system: Aspergillus fumigatus; assay: Minimum concentration required to inhibit the growth of Aspergillus fumigatus; format: functional
[2] = test system: Nakaseomyces glabratus; assay: Minimum concentration required to inhibit the growth of Candida glabrata; format: functional
[3] = test system: Kluyveromyces marxianus; assay: Minimum concentration required to inhibit the growth of Candida kefyr; format: functional
[4] = test system: Candida albicans; assay: Minimum concentration required to inhibit the growth of Candida albicans 1; format: functional
[5] = test system: Candida albicans; assay: Minimum concentration required to inhibit the growth of Candida albicans 2; format: functional
[6] = test system: Candida albicans; assay: Minimum concentration required to inhibit the growth of Candida albicans 4; format: functional
[7] = test system: Candida parapsilosis; assay: Minimum concentration required to inhibit the growth of Candida parapsilosis; format: functional; settings: Lodderomyces parapsilosis
[8] = test system: Candida tropicalis; assay: Minimum concentration required to inhibit the growth of Candida tropicalis; format: functional
[9] = test system: Pichia kudriavzevii; assay: Minimum concentration required to inhibit the growth of Candida krusei; format: functional
[10] = test system: Cryptococcus neoformans; assay: Minimum concentration required to inhibit the growth of Cryptococcus neoformans; format: functional
[11] = test system: mold; assay: Concentration required to inhibit growth of pathogenic molds; format: functional
[12] = test system: Microsporum canis; assay: Minimum concentration required to inhibit the growth of […] canis; format: functional
[13] = test system: Trichophyton benhamiae; assay: Minimum concentration required to inhibit the growth of Trichophyton mentagrophytes; format: functional, Arthroderma benhamiae
[14] = test system: Trichophyton rubrum; assay: Minimum concentration required to inhibit the growth of Trichophyton rubrum; format: functional
[15] = test system: Saccharomyces cerevisiae; assay: Concentration required to inhibit 65% growth of Yeast strains; format: functional
[16] = test system: Sporothrix schenckii; assay: Minimum concentration required to inhibit the growth of Sporothrix schenck ii; format: functional
[17] = test system: Saccharomyces cerevisiae; assay: Concentration required to inhibit 65% growth of selected sets of Yeasts; format: functional

MIC [1]: > 10 µM
MIC [2]: 10 µM (≈ 5.12 µg/mL)
MIC [3]: ≤ 0.1 µM
MIC [4]: > 10 µM
MIC [5]: ≤ 0.1 µM
MIC [6]: ≤ 0.1 µM
MIC [7]: ≤ 0.1 µM
MIC [8]: ≤ 0.1 µM
MIC [9]: 10 µM (≈ 5.12 µg/mL)
MIC [10]: 1 µM (≈ 0.512 µg/mL)
MIC [12]: 10 µM (≈ 5.12 µg/mL)
MIC [13]: > 10 µM
MIC [14]: 10 µM (≈ 5.12 µg/mL)
MIC [16]: > 10 µM
SMILES: O=S(=O)(c1ccc(N2CCN(c3ccc(F)cc3)CC2)cc1)N(Cc1c[nH]cn1)CC1CCCCC1
pLADM [11]: 4
pLADY [15]: 6.9

SMILES: O=S(=O)(c1ccc(N2CCN(c3ccc(Cl)c(Cl)c3)CC2)cc1)N(CCc1ccccc1F)Cc1c[nH]cn1
pLADM [11]: 4
pLADY [17]: 5.8

SMILES: CC(C)C(C(C)C)N(Cc1c[nH]cn1)S(=O)(=O)c1ccc(N2CCN(c3ccc(F)cc3)CC2)cc1
pLADM [11]: 4
pLADY [17]: 6.4

SMILES: O=S(=O)(c1ccc(N2CCOCC2)cc1)N(CCc1ccccc1F)Cc1c[nH]cn1
pLADM [11]: 4
pLADY [17]: 4.5

SMILES: COc1ccc(-c2ccc(S(=O)(=O)N(Cc3c[nH]cn3)C(C(C)C)C(C)C)cc2)cc1
pLADM [11]: 5
pLADY [17]: 6.4

SMILES: CN(c1ccc(S(=O)(=O)N(Cc2c[nH]cn2)CC2CCCCC2)cc1)C1CCCCC1
pLADM [11]: 4
pLADY [17]: 5.5

SMILES: CCCCCCN(Cc1c[nH]cn1)S(=O)(=O)c1ccc(-c2ccc(F)cc2)cc1
pLADM [11]: 4.8
pLADY [17]: 5.9

SMILES: CC(C)C(C(C)C)N(Cc1c[nH]cn1)S(=O)(=O)c1ccc(-c2ccccc2)cc1
pLADM [11]: 5.2
pLADY [17]: 6.6

SMILES: CCC(CC)Nc1ccc(S(=O)(=O)N(Cc2c[nH]cn2)C(C(C)C)C(C)C)cc1
pLADM [11]: 4
pLADY [17]: 6.5

MIC [1]: 10 µM (≈ 4.3 µg/mL)
MIC [2]: 1 µM (≈ 0.43 µg/mL)
MIC [3]: ≤ 0.1 µM
MIC [4]: > 10 µM
MIC [5]: ≤ 0.1 µM
MIC [6]: 1 µM (≈ 0.43 µg/mL)
MIC [7]: ≤ 0.1 µM
MIC [8]: ≤ 0.1 µM
MIC [9]: 1 µM (≈ 0.43 µg/mL)
MIC [10]: ≤ 0.1 µM
MIC [12]: 1 µM (≈ 0.43 µg/mL)
MIC [13]: 10 µM (≈ 4.3 µg/mL)
MIC [14]: 1 µM (≈ 0.43 µg/mL)
MIC [16]: > 10 µM
SMILES: CC(C)C(C(C)C)N(Cc1c[nH]cn1)S(=O)(=O)c1ccc(-c2ccc(F)cc2)cc1
pLADM [11]: 5.2
pLADY [15]: 6.8

SMILES: Cc1ccc(N2CCN(c3ccc(S(=O)(=O)N(Cc4c[nH]cn4)CC4CCCCC4)cc3)CC2)cc1
pLADM [11]: 4
pLADY [17]: 6.3

MIC [1]: 1 µM (≈ 0.706 µg/mL)
MIC [2]: 1 µM (≈ 0.706 µg/mL)
MIC [3]: ≤ 0.1 µM
MIC [4]: > 10 µM
MIC [5]: ≤ 0.1 µM
MIC [6]: > 10 µM
MIC [7]: ≤ 0.1 µM
MIC [8]: 0.1 µM (≈ 0.0706 µg/mL)
MIC [9]: 1 µM (≈ 0.706 µg/mL)
MIC [10]: ≤ 0.1 µM
MIC [12]: ≤ 0.1 µM
MIC [13]: 0.1 µM (≈ 0.0706 µg/mL)
MIC [14]: ≤ 0.1 µM
MIC [16]: 10 µM (≈ 7.06 µg/mL)
SMILES: CCC(C)n1ncn(-c2ccc(N3CCN(c4ccc(OCC5COC(Cn6cncn6)(c6ccc(Cl)cc6Cl)O5)cc4)CC3)cc2)c1=O (stereo not given) [ITRACONAZOLE]

SMILES: CC(=O)Nc1cccc(-c2ccc(S(=O)(=O)N(Cc3c[nH]cn3)CC3CCCCC3)cc2)c1
pLADM [11]: 4
pLADY [17]: 4.1

SMILES: O=S(=O)(c1ccc(N2CCCCC2)cc1)N(CCc1ccccc1F)Cc1c[nH]cn1
pLADM [11]: 4.2
pLADY [17]: 5.9

SMILES: C[C@@H](c1ncncc1F)[C@](O)(Cn1cncn1)c1ccc(F)cc1F [VORICONAZOLE]
MIC [1]: 1 µM (≈ 0.349 µg/mL)
MIC [2]: 10 µM (≈ 3.49 µg/mL)
MIC [3]: ≤ 0.1 µM
MIC [4]: > 10 µM
MIC [5]: ≤ 0.1 µM
MIC [7]: ≤ 0.1 µM
MIC [8]: 1 µM (≈ 0.349 µg/mL)
MIC [9]: 10 µM (≈ 3.49 µg/mL)
MIC [10]: 1 µM (≈ 0.349 µg/mL)
MIC [12]: 1 µM (≈ 0.349 µg/mL)
MIC [13]: ≤ 0.1 µM
MIC [14]: ≤ 0.1 µM
MIC [16]: > 10 µM

SMILES: O=S(=O)(c1ccc(-c2ccc(F)cc2)cc1)N(Cc1c[nH]cn1)C1CCCCC1
pLADM [11]: 4.4
pLADY [17]: 5.8

SMILES: O=S(=O)(c1ccc(N2CCN(c3ccccn3)CC2)cc1)N(Cc1c[nH]cn1)CC1CCCCC1
pLADM [11]: 4
pLADY [17]: 6.4

SMILES: COc1ccc(-c2ccc(S(=O)(=O)N(Cc3c[nH]cn3)CC3CCCCC3)cc2)cc1
pLADM [11]: 4.4
pLADY [17]: 6.3

SMILES: O=S(=O)(c1ccc(NCCc2ccc(Cl)cc2Cl)cc1)N(Cc1c[nH]cn1)CC1CCCCC1
pLADM [11]: 4
pLADY [17]: 5.4

MIC [1]: > 10 µM
MIC [2]: 10 µM (≈ 5.36 µg/mL)
MIC [3]: ≤ 0.1 µM
MIC [4]: 10 µM (≈ 5.36 µg/mL)
MIC [5]: ≤ 0.1 µM
MIC [6]: 1 µM (≈ 0.536 µg/mL)
MIC [7]: < 0.1 µM
MIC [8]: 1 µM (≈ 0.536 µg/mL)
MIC [9]: 1 µM (≈ 0.536 µg/mL)
MIC [10]: 1 µM (≈ 0.536 µg/mL)
MIC [12]: 10 µM (≈ 5.36 µg/mL)
MIC [13]: > 10 µM
MIC [14]: 10 µM (≈ 5.36 µg/mL)
MIC [16]: > 10 µM
SMILES: O=S(=O)(c1ccc(CNCCc2ccc(Cl)cc2Cl)cc1)N(Cc1c[nH]cn1)CC1CCCCC1
pLADM [11]: 4.4
pLADY [15]: 6.5

SMILES: O=S(=O)(c1ccc(CNCCc2ccc(Cl)cc2Cl)cc1)N(CCc1ccc(F)cc1)Cc1c[nH]cn1
pLADM [11]: 4.4
pLADY [17]: 6.1

SMILES: CC(C)C(C(C)C)N(Cc1c[nH]cn1)S(=O)(=O)c1ccc(-c2ccc(Cl)cc2)cc1
pLADM [11]: 5.4
pLADY [17]: 6.4

MIC [1]: > 10 µM
MIC [2]: 10 µM (≈ 4.32 µg/mL)
MIC [3]: ≤ 0.1 µM
MIC [4]: > 10 µM
MIC [5]: ≤ 0.1 µM
MIC [6]: 10 µM (≈ 4.32 µg/mL)
MIC [7]: 1 µM (≈ 0.432 µg/mL)
MIC [8]: ≤ 0.1 µM
MIC [9]: > 10 µM
MIC [10]: 1 µM (≈ 0.432 µg/mL)
MIC [12]: 10 µM (≈ 4.32 µg/mL)
MIC [13]: > 10 µM
MIC [14]: 1 µM (≈ 0.432 µg/mL)
MIC [16]: > 10 µM
SMILES: CCCCOc1ccc(S(=O)(=O)N(CCc2ccc(F)cc2)Cc2c[nH]cn2)cc1

SMILES: O=S(=O)(c1ccc(N2CCN(c3cccc(C(F)(F)F)c3)CC2)cc1)N(Cc1c[nH]cn1)CC1CCCCC1
pLADM [11]: 4
pLADY [17]: 6.3

SMILES: CN1CCN(c2ccc(S(=O)(=O)N(Cc3c[nH]cn3)CC3CCCCC3)cc2)CC1
pLADM [11]: 4
pLADY [17]: 4.6

SMILES: O=S(=O)(c1ccc(COc2ccc(F)cc2)cc1)N(Cc1c[nH]cn1)CC1CCCCC1
pLADM [11]: 4.4
pLADY [17]: 6.1

SMILES: O=S(=O)(c1ccc(-c2ccc(F)cc2)cc1)N(Cc1c[nH]cn1)CC1CCCCC1
pLADM [11]: 4.4
pLADY [17]: 6.3

MIC [1]: > 10 µM
MIC [2]: 1 µM (≈ 0.434 µg/mL)
MIC [3]: ≤ 0.1 µM
MIC [4]: > 10 µM
MIC [5]: ≤ 0.1 µM
MIC [6]: ≤ 0.1 µM
MIC [7]: ≤ 0.1 µM
MIC [8]: 1 µM (≈ 0.434 µg/mL)
MIC [9]: 1 µM (≈ 0.434 µg/mL)
MIC [10]: 1 µM (≈ 0.434 µg/mL)
MIC [12]: 1 µM (≈ 0.434 µg/mL)
MIC [13]: 10 µM (≈ 4.34 µg/mL)
MIC [14]: 1 µM (≈ 0.434 µg/mL)
MIC [16]: > 10 µM
SMILES: CCCCOc1ccc(S(=O)(=O)N(Cc2c[nH]cn2)C(CC)C2CCCCC2)cc1 (stereo not given)

SMILES: O=S(=O)(c1ccc(-c2ccsc2)cc1)N(Cc1c[nH]cn1)CC1CCCCC1
pLADM [11]: 4.4
pLADY [17]: 6.1

SMILES: O=S(=O)(c1ccc(N2CCN(c3ccc(F)cc3)CC2)cc1)N(CCc1ccccc1F)Cc1c[nH]cn1
pLADM [11]: 4.4
pLADY [17]: 6.8

SMILES: O=S(=O)(c1ccc(N2CCN(c3ccccc3Cl)CC2)cc1)N(CCc1ccccc1F)Cc1c[nH]cn1
pLADM [11]: 4.2
pLADY [17]: 6

SMILES: O=S(=O)(c1ccc(-c2ccc(Cl)cc2)cc1)N(Cc1c[nH]cn1)CC1CCCCC1
pLADM [11]: 4.4
pLADY [17]: 6.3

SMILES: O=S(=O)(c1ccc(CN2CCN(c3ccccn3)CC2)cc1)N(Cc1c[nH]cn1)CC1CCCCC1
pLADM [11]: 4
pLADY [17]: 6.4
